{"source": "patent US9925176B2", "about": "“Sodium channel blocker delivery system with scleral lens” (Boston Foundation for Sight, priority 2009, dated 2018)", "key": {"cornea": {"system": "cornea", "conditions": "proparacaine 0.05%, after photorefractive keratectomy, Shahinian et al.; cited from earlier work"}, "corneal sensitivity": {"system": "corneal sensitivity", "assay": "Corneal sensitivity by Cochet-Bonnet aesthesiometry", "format": "in vivo, human", "text": "The sub-hypoesthetic dose for a sodium channel blocker or a sodium channel modulator may vary between patients. […] The sub-hypoesthetic dose of a sodium channel blocker or a sodium channel modulator can be determined for an individual patient by selecting a higher starting concentration and gradually reducing the concentration via titration until reaching a sub-hypoesthetic dose as determined by a contact and non-contact esthesiometer. A non-limiting example of a method of determining corneal sensitivity is Cochet-Bonnet aesthesiometry.\nAs used herein, the phrases “sub-anesthetic dose” and “sub-anesthetic concentration” refer to a dose of a sodium channel blocker or a sodium channel modulator or a sodium channel modulator that is lower than the anesthetic dose. “Sub-anesthetic dose” and “sub-anesthetic concentration” may be used interchangeably. The sub-anesthetic dose of a sodium channel blocker or a sodium channel modulator may vary between patients. The sub-anesthetic dose of a sodium channel blocker or a sodium channel modulator can be determined for an individual patient by selecting a higher starting concentration and gradually reducing the concentration via titration until reaching a sub-anesthetic dose as determined by a contact and non-contact esthesiometer. A non-limiting example of a starting concentration of a sodium channel blocker or a sodium channel modulator is about 0.02%. In some embodiments, the concentration of the sodium channel blocker or a sodium channel modulator may be titrated down to a concentration that avoids any depression of corneal sensitivity. A non-limiting example of a method of determining corneal sensitivity is Cochet-Bonnet aesthesiometry.\nA patient with well-established primary Sjögren's syndrome and severe dry eyes was treated for intense, constant corneal pain using the anesthetic delivery system disclosed herein. Specifically, the patient was treated with bupivacaine and BOS-P devices. The concentration of non-preserved bupivacaine was rapidly titrated using frequent (every 2-5 minutes) drops in the more symptomatic left eye (open label) measuring corneal sensitivity with a Cochet-Bonnet aesthesiometer (with adequate recovery times) until reaching the concentration that avoided any depression of corneal sensitivity. The sub-anesthetic concentration in this patient was determined to be 0.001%. […] The patient then left."}, "corneas": {"system": "corneas", "assay": "Ocular safety examination (fluorescein staining, slit lamp, confocal microscopy)", "format": "in vivo, human", "experimental": "(§1) They wore the BOS-P containing 0.001% bupivacaine in their left eye, and the BOS-P containing saline in their right eye unmasked to the patient and doctor, for about 8 hours. […] Corneal sensation in the treated eye was normal.\nThe patient returned the following day 2 hours after inserting the scleral lenses containing 0.015% ropivacaine.\nA patient suffered from severe corneal neuropathic pain for many years, greatly limiting the patient's quality of life. This disease was refractory to previous treatments. Lacosamide was placed in the fluid reservoir of the device where it remained in contact with the cornea while it was worn (approximately 10 hours/day)."}, "corneal neuropathic pain [1]": {"system": "corneal neuropathic pain", "assay": "Treatment of corneal pain with drug solution in the fluid reservoir of a scleral lens (BOS-P)", "format": "in vivo, human", "experimental": "A patient with well-established primary Sjögren's syndrome and severe dry eyes was treated for intense, constant corneal pain using the anesthetic delivery system disclosed herein. Specifically, the patient was treated with bupivacaine and BOS-P devices. The concentration of non-preserved bupivacaine was rapidly titrated using frequent (every 2-5 minutes) drops in the more symptomatic left eye (open label) measuring corneal sensitivity with a Cochet-Bonnet aesthesiometer (with adequate recovery times) until reaching the concentration that avoided any depression of corneal sensitivity. The sub-anesthetic concentration in this patient was determined to be 0.001%. Both BOS-P devices were filled with 0.001% bupivacaine and inserted into the patient's eyes. The patient then left.\nThe patient was given a vial of 0.01% bupivacaine to dilute 1:10 (e.g., add one drop of 0.01% bupivacaine to nine drops of saline) to fill the reservoir of the left lens prior to inserting it the next morning.\nas §1\nThe fluid compartments of both BOS-P lenses were filled with non-preserved bupivacaine at a concentration of 0.002%, and the BOS-P lenses with bupivacaine were worn at least 12 hours/day. […] Eye symptoms were also resolved after the bupivacaine was diluted to 0.0014%.\nA patient suffered from Stevens-Johnson syndrome for about 25 years, complicated by scarring of the lids and corneas of both eyes. The patient was fitted with scleral lens with marked mitigation of eye pain for 2 years following which the patient experienced increasingly disabling eye pain and photosensitivity that was refractory to all available treatments and required high daily doses of opioids to control. Three drops of ropivacaine 0.04% were mixed with 5 drops of saline in the reservoirs of both of the patient's scleral lenses, yielding a solution of 0.015% ropivacaine.\nThe patient returned the following day 2 hours after inserting the scleral lenses containing 0.015% ropivacaine. […]\nA patient underwent a bone marrow stem cell transplant for leukemia and subsequently developed severe dry eyes secondary to chronic graft versus host disease. They were fitted with a scleral lens that eliminated the severe burning pain in their right eye but continued to experienced knife-like and severe aching pain in their left eye and disabling photosensitivity while wearing the scleral lens. This persisted for 15 months. All eye and co-morbid pain symptoms disappeared when the lens was worn with its fluid reservoir filled with sterile, non-preserved lacosamide 0.05%."}, "corneal neuropathic pain [2]": {"system": "corneal neuropathic pain", "assay": "Lacosamide eye drops without scleral lens for corneal neuropathic pain", "format": "in vivo, human", "conditions": "Example 5, eye drops with 0.5% lacosamide", "experimental": "Eye drops containing 0.5% lacosamide were administered to the eyes of two patients and to the an eye of the inventor. […] Therefore, it is believed that lacosamide may be used in eye drops at a concentration of up to 5% to treat corneal neuropathic pain without depressing corneal sensation."}, "[3]": {"conditions": "Example 3, ropivacaine in scleral lenses, continued use"}}}
{"smiles": "CCCOc1ccc(C(=O)OCCN(CC)CC)cc1N", "note": "[Proparacaine]", "values": [{"measurement": "anesthetic effect", "setting": "cornea", "value": "non-anesthetic"}, {"measurement": "toxicity and safety", "setting": "cornea", "value": "non-toxic, and safe for at least one week of use"}]}
{"smiles": "CCCN1CCCC[C@H]1C(=O)Nc1c(C)cccc1C", "note": "[ropivacaine]", "values": [{"measurement": "corneal sensitivity", "setting": "corneal sensitivity; Example 3, 0.015% ropivacaine, following day", "value": "normal"}, {"measurement": "corneal sensitivities at subsequent examinations", "setting": "corneal sensitivity; [3]", "value": "normal"}, {"measurement": "adverse effects from the treatment", "setting": "corneas; in vivo", "value": "no adverse effects"}, {"measurement": "treatment-related complications at subsequent examinations", "setting": "corneas; in vivo", "value": "without adverse treatment-related complications"}, {"measurement": "eye pain and photophobia, lenses worn until midnight", "setting": "corneal neuropathic pain [1]; Example 3, 0.015% ropivacaine, first day", "value": "total resolution"}, {"measurement": "eye pain and photosensitivity following application", "setting": "corneal neuropathic pain [1]; Example 3, Stevens-Johnson syndrome, 0.015% ropivacaine in both scleral lenses", "value": "rapid mitigation"}, {"measurement": "symptoms at the time of examination", "setting": "corneal neuropathic pain [1]; Example 3, following day, 2 hours after inserting lenses with 0.015% ropivacaine", "value": "free of symptoms"}, {"measurement": "eye pain and photophobia at subsequent examinations", "setting": "corneal neuropathic pain [1]; [3]", "value": "significant mitigation"}]}
{"smiles": "COC[C@@H](NC(C)=O)C(=O)NCc1ccccc1", "note": "[lacosamide]", "values": [{"measurement": "corneal sensation", "setting": "corneal sensitivity; Example 5, eye drops with 0.5% lacosamide, two patients and the inventor", "value": "did not depress corneal sensation"}, {"measurement": "detrimental effects to the corneas", "setting": "corneas; Example 4, 0.003% lacosamide in BOS-P, slit lamp examination and confocal microscopy", "value": "without any detrimental effects"}, {"measurement": "eye and co-morbid pain symptoms", "setting": "corneal neuropathic pain [1]; Example 6, chronic graft versus host disease dry eye, scleral lens reservoir filled with lacosamide 0.05%", "value": "disappeared"}, {"measurement": "duration of effect, one patient", "setting": "corneal neuropathic pain [2]", "value": "over four"}, {"measurement": "duration of effect, other patient", "setting": "corneal neuropathic pain [2]", "value": "over two"}, {"measurement": "onset of pain resolution", "setting": "corneal neuropathic pain [2]", "value": "almost immediately after administration"}, {"measurement": "corneal neuropathic pain", "setting": "corneal neuropathic pain [2]; both patients", "value": "complete resolution"}]}
{"smiles": "CCCCN1CCCCC1C(=O)Nc1c(C)cccc1C", "note": "(stereo not shown) [bupivacaine]", "values": [{"measurement": "corneal sensitivity during wear", "setting": "corneal sensitivity; Example 1, 0.001% bupivacaine in left lens, verified periodically during the day", "value": "absence of depressed corneal sensitivity"}, {"measurement": "corneal sensation in the treated eye", "setting": "corneal sensitivity; Example 1, after about 8 hours of BOS-P with 0.001% bupivacaine", "value": "normal"}, {"measurement": "corneal sensation", "setting": "corneal sensitivity; Example 2, 0.002% bupivacaine in BOS-P, several weeks", "value": "remained intact"}, {"measurement": "fluorescein staining", "setting": "corneas; in vivo", "value": "no significant fluorescein staining"}, {"measurement": "eye comfort reported by patient", "setting": "corneal neuropathic pain [1]; Example 1, both BOS-P filled with 0.001% bupivacaine, next day", "value": "both eyes felt more comfortable than they had been in 3 months"}, {"measurement": "pain reported at day's end", "setting": "corneal neuropathic pain [1]; Example 1, second day, left lens reservoir filled with non-preserved bupivacaine", "value": "virtual absence of pain in either eye"}, {"measurement": "pain after exposure to glass cleaner or white board marker", "setting": "corneal neuropathic pain [1]; Example 1, second day, triggers that ordinarily cause severe pain", "value": "little or no pain"}, {"measurement": "pain reported after about 8 hours of wear", "setting": "corneal neuropathic pain [1]; Example 1, third day, BOS-P with 0.001% bupivacaine in left eye, saline in right eye", "value": "virtually no pain in either eye"}, {"measurement": "pain with the Visual Analog Scale", "setting": "corneal neuropathic pain [1]; Example 1, third day, on arrival", "value": "virtually no pain in either eye"}, {"measurement": "eye symptoms", "setting": "corneal neuropathic pain [1]; Example 2, bupivacaine diluted to 0.0014%", "value": "resolved"}, {"measurement": "eye symptoms (photosensitivity, burning pain, inability to read)", "setting": "corneal neuropathic pain [1]; Example 2, post cosmetic lid surgery, 0.002% bupivacaine in both BOS-P, at least 12 hours/day, several weeks", "value": "resolved"}]}
